According to patent US10485808B2, “Selective progesterone receptor modulators (SPRM) and stabilized estrogen level in patient” (BAYER PHARMA AKTIENGESELLSCHAFT, priority 2017, dated 2019):

What was measured:
[1] = tested on: women diagnosed with uterine fibroids; experiment: Study 15788: estradiol concentrations in serum, 1x12 weeks treatment; type: in vivo, human
Method: Example 4: Clinical Study in Women Diagnosed with Uterine Fibroids During a 1×12 Weeks/84 Days Treatment with Compound 1
Study protocol (N^o 15788):
Doses: 0.5 mg, 1 mg, 2 mg, or 4 mg once daily
(§1) Route of administration: Oral
Duration of treatment: 1×12 weeks (84 days)
Women, 18 to 50 years old, with uterine fibroids documented by transvaginal or abdominal ultrasound at screening with at least 1 uterine fibroid with largest diameter 3 cm and Heavy Menstrual Bleeding (HMB) 80 mL were eligible for enrolment in the study.
(§2) Following screening visit 1 (Visit 1), there was a screening period of up to 90 days to arrange for complete results of all baseline assessments. […] Every effort was made to keep the duration of the screening period to a minimum.
Eligible subjects were equally randomized to one of the treatment groups (Placebo, 0.5 mg, 1 mg, 2 mg, or 4 mg Compound 1). Treatment was started during the first week of the menstrual cycle following randomization. The treatment period consisted of 12 weeks (84 days) of daily tablet intake.
In this study, estradiol levels were measured • At the End of Treatment (EoT) visit and • Randomization visit 3.

[2] = tested on: women diagnosed with uterine fibroids; experiment: Study 17541/A1: estradiol concentrations in serum, 1x24 weeks treatment; type: in vivo, human; conditions: for Estradiol concentrations in serum, Max / Estradiol concentrations in serum, Mean / Estradiol concentrations in serum, Median / Estradiol concentrations in serum, Min: Cp1 2 mg once daily oral
Method: Example 6: Clinical Study in Women Diagnosed with Uterine Fibroids During a 1×24 Weeks Treatment with Compound 1
Study protocol (N^o 17541/A1):
as §1
Duration of treatment: 1×24 weeks
Women, 18 to 50 years old, with uterine fibroids documented by transvaginal or abdominal ultrasound at screening with at least 1 uterine fibroid with largest diameter >3 cm and Heavy Menstrual Bleeding (HMB)>80 mL were eligible for enrolment in the study.
as §2
Eligible subjects were equally randomized to treatment 2 mg of Compound 1. Treatment was started during the first week of the menstrual cycle following randomization. The treatment period consisted of 24 weeks of daily tablet intake.
In this study, estradiol levels were measured • Treatment Visit 3 (corresponding to the end of 12 weeks treatment), • Treatment Visit 6 (corresponding to the end of 24 weeks treatment).

[3] = Cp1 0.5 mg once daily oral, End of Treatment (12 weeks)
[4] = Cp1 0.5 mg once daily oral, Randomization
[5] = Cp1 1 mg once daily oral, End of Treatment (12 weeks)
[6] = Cp1 1 mg once daily oral, Randomization
[7] = Cp1 2 mg once daily oral, End of Treatment (12 weeks)
[8] = Cp1 2 mg once daily oral, Randomization
[9] = Cp1 4 mg once daily oral, End of Treatment (12 weeks)
[10] = Cp1 4 mg once daily oral, Randomization
[11] = Treatment Visit 3 (end of 12 weeks treatment)
[12] = Treatment Visit 6 (end of 24 weeks treatment)

C[C@]12C[C@H](c3ccc(S(C)(=O)=O)cc3)C3=C4CCC(=O)C=C4CC[C@H]3[C@@H]1CC[C@@]2(O)C(F)(F)C(F)(F)F [Compound 1, (11β,17β)-17-Hydroxy-11-[4-(methylsulphonyl)phenyl]-17-(pentafluoroethyl)estra-4,9-dien-3-one]
Estradiol levels under treatment compared to baseline ([1]; 0.5-4 mg once daily, 12 weeks): moderately suppressed | Safety concerns from the data analysed ([1]; 0.5-4 mg once daily, 12 weeks): no safety concerns were identified | Estradiol concentrations in serum, Max [1, 3]: 357.5 pg/mL | Estradiol concentrations in serum, Mean [1, 3]: 97.3 pg/mL | Estradiol concentrations in serum, Median [1, 3]: 56.9 pg/mL | Estradiol concentrations in serum, Min [1, 3]: 8.3 pg/mL | Estradiol concentrations in serum, Max [1, 4]: 318.6 pg/mL | Estradiol concentrations in serum, Mean [1, 4]: 115.78 pg/mL | Estradiol concentrations in serum, Median [1, 4]: 100.2 pg/mL | Estradiol concentrations in serum, Min [1, 4]: 7.1 pg/mL | Estradiol concentrations in serum, Max [1, 5]: 384.9 pg/mL | Estradiol concentrations in serum, Mean [1, 5]: 72.85 pg/mL | Estradiol concentrations in serum, Median [1, 5]: 50 pg/mL | Estradiol concentrations in serum, Min [1, 5]: 11.8 pg/mL | Estradiol concentrations in serum, Median ([1]; Cp1 1 mg once daily oral, End of Treatment (12 weeks), listed as Cp1): 50.1 pg/mL | Estradiol concentrations in serum, Max [1, 6]: 490.2 pg/mL | Estradiol concentrations in serum, Mean [1, 6]: 120.72 pg/mL | Estradiol concentrations in serum, Median [1, 6]: 103.65 pg/mL | Estradiol concentrations in serum, Min [1, 6]: 21.5 pg/mL | Estradiol concentrations in serum, Max [1, 7]: 433.9 pg/mL | Estradiol concentrations in serum, Mean [1, 7]: 76.23 pg/mL | Estradiol concentrations in serum, Median [1, 7]: 50 pg/mL | Estradiol concentrations in serum, Min [1, 7]: 10.5 pg/mL | Estradiol concentrations in serum, Median ([1]; Cp1 2 mg once daily oral, End of Treatment (12 weeks), listed as Cp1): 49.95 pg/mL | Estradiol concentrations in serum, Max [1, 8]: 407.8 pg/mL | Estradiol concentrations in serum, Mean [1, 8]: 111.25 pg/mL | Estradiol concentrations in serum, Median [1, 8]: 96.6 pg/mL | Estradiol concentrations in serum, Min [1, 8]: 6.7 pg/mL | Estradiol concentrations in serum, Max [1, 9]: 255.3 pg/mL | Estradiol concentrations in serum, Mean [1, 9]: 56.51 pg/mL | Estradiol concentrations in serum, Median [1, 9]: 39 pg/mL | Estradiol concentrations in serum, Min [1, 9]: 9.5 pg/mL | Estradiol concentrations in serum, Median ([1]; Cp1 4 mg once daily oral, End of Treatment (12 weeks), listed as Cp1): 38.7 pg/mL | Estradiol concentrations in serum, Max [1, 10]: 347.6 pg/mL | Estradiol concentrations in serum, Mean [1, 10]: 117.05 pg/mL | Estradiol concentrations in serum, Median [1, 10]: 101.7 pg/mL | Estradiol concentrations in serum, Min [1, 10]: 6.8 pg/mL | Mean estradiol values after the EoT ([1]; all Doses, data not shown): returned to baseline levels | Estradiol levels under treatment compared to baseline ([2]; 2 mg once daily, 24 weeks): moderately suppressed | Safety concerns from the data analysed ([2]; 2 mg once daily, 24 weeks): no safety concerns were identified | Estradiol concentrations in serum, Max ([2]; Baseline): 644.2 pg/mL | Estradiol concentrations in serum, Mean ([2]; Baseline): 135.97 pg/mL | Estradiol concentrations in serum, Median ([2]; Baseline): 93.55 pg/mL | Estradiol concentrations in serum, Min ([2]; Baseline): 29.4 pg/mL | Estradiol concentrations in serum, Max [2, 11]: 557.5 pg/mL | Estradiol concentrations in serum, Mean [2, 11]: 77.46 pg/mL | Estradiol concentrations in serum, Median [2, 11]: 47.50 pg/mL | Estradiol concentrations in serum, Min [2, 11]: 11.0 pg/mL | Estradiol concentrations in serum, Max [2, 12]: 132.5 pg/mL | Estradiol concentrations in serum, Mean [2, 12]: 44.69 pg/mL | Estradiol concentrations in serum, Median [2, 12]: 42.50 pg/mL | Estradiol concentrations in serum, Min [2, 12]: 7.9 pg/mL | Mean estradiol values after the EoT ([2]; data not shown): returned to baseline levels
